According to patent US5633382A, “Histamine H3 -receptor antagonists and therapeutic uses thereof” (The University of Toledo, priority 1994, dated 1997):

Legend:
[1] = Behavioral effects (sleeping) after i.p. injection in mice; assay type: in vivo, mouse
histamine H3 -receptor = assay: Reversal of the soporific effect of (R)α-methylhistamine in mice; assay type: in vivo, mouse
Description: The overall strategy to show central nervous system antagonist activity was to challenge effects of the agonist (R)α-methylhistamine. Therefore, the first objective was to establish a dose response curve for behavioral effects of (R)α-methylhistamine. Male albino CF-1 mice weighing 20-30 g were used. Saline or (R)α-methylhistamine in saline was injected i.p. in a volume ≤0.4 ml. […] Animals were scored for the presence (1) or absence (0) of the behavior and the results were reported as the accumulated score for a 30 minute period (maximum score=9).
To assess the effects of antagonists, they were administered with the (R)α-methylhistamine in saline.

[2] = tested on: adenosine, excitory or inhibitory amino acid, dopamine, serotonin, or a broad range of petidergic receptors, or to ion channel proteins, peptide factor or …; assay: NOVASCREEN receptor selectivity study, panel as a whole; assay type: binding; settings: 10^-5 M
[3] = Toxicity observed in testing to date; assay type: in vivo; settings: all testing to date, even at high doses
Glycine (excitatory) = assay: NOVASCREEN receptor selectivity assay; assay type: binding; settings: 10^-5 M
Source text: (§1) represent the average of duplicate tubes at each of the concentrations

Substance P = assay: NOVASCREEN receptor selectivity assay; assay type: binding; settings: 10^-5 M
Source text: as §1

CCK Central = assay: NOVASCREEN receptor selectivity assay; assay type: binding; settings: 10^-5 M
Source text: as §1

Angiotensin = assay: NOVASCREEN receptor selectivity assay; assay type: binding; settings: 10^-5 M
Source text: as §1

PCP = assay: NOVASCREEN receptor selectivity assay; assay type: binding; settings: 10^-5 M
Source text: as §1

Kainate = assay: NOVASCREEN receptor selectivity assay; assay type: binding; settings: 10^-5 M
Source text: as §1

Bombesin = assay: NOVASCREEN receptor selectivity assay; assay type: binding; settings: 10^-5 M
Source text: as §1

Chloride channel = assay: NOVASCREEN receptor selectivity assay; assay type: binding; settings: 10^-5 M
Source text: as §1

Serotonin 1 = assay: NOVASCREEN receptor selectivity assay; assay type: binding; settings: 10^-5 M
Source text: as §1

GABAB = assay: NOVASCREEN receptor selectivity assay; assay type: binding; settings: 10^-5 M
Source text: as §1

Arg-Vasopressin V1 = assay: NOVASCREEN receptor selectivity assay; assay type: binding; settings: 10^-5 M
Source text: as §1

Potassium channel = assay: NOVASCREEN receptor selectivity assay; assay type: binding; settings: 10^-5 M
Source text: as §1

[4] = tested on: Adenylate Cyclase (Forskolin); assay: NOVASCREEN receptor selectivity assay; assay type: binding; settings: 10^-5 M
Source text: as §1

NGF = assay: NOVASCREEN receptor selectivity assay; assay type: binding; settings: 10^-5 M
Source text: as §1

Glycine (Inhibitory) = assay: NOVASCREEN receptor selectivity assay; assay type: binding; settings: 10^-5 M
Source text: as §1

GABAA = assay: NOVASCREEN receptor selectivity assay; assay type: binding; settings: 10^-5 M
Source text: as §1

[5] = tested on: Protein Kinase C (Phorbol Ester); assay: NOVASCREEN receptor selectivity assay; assay type: binding; settings: 10^-5 M
Source text: as §1

[6] = tested on: Calcium channel (Nifedipine); assay: NOVASCREEN receptor selectivity assay; assay type: binding; settings: 10^-5 M
Source text: as §1

ANF (rat) = assay: NOVASCREEN receptor selectivity assay; assay type: binding; settings: 10^-5 M
Source text: as §1

VIP = assay: NOVASCREEN receptor selectivity assay; assay type: binding; settings: 10^-5 M
Source text: as §1

Adenosine = assay: NOVASCREEN receptor selectivity assay; assay type: binding; settings: 10^-5 M
Source text: as §1

MK-801 = assay: NOVASCREEN receptor selectivity assay; assay type: binding; settings: 10^-5 M
Source text: as §1

Dopamine 2 = assay: NOVASCREEN receptor selectivity assay; assay type: binding; settings: 10^-5 M
Source text: as §1

Somatostatin = assay: NOVASCREEN receptor selectivity assay; assay type: binding; settings: 10^-5 M
Source text: as §1

EGF = assay: NOVASCREEN receptor selectivity assay; assay type: binding; settings: 10^-5 M
Source text: as §1

[7] = tested on: Quisqualate (Excitatory Amino Acids); assay: NOVASCREEN receptor selectivity assay; assay type: binding; settings: 10^-5 M
Source text: as §1

Benzodiazephine = assay: NOVASCREEN receptor selectivity assay; assay type: binding; settings: 10^-5 M
Source text: as §1

Dopamine 1 = assay: NOVASCREEN receptor selectivity assay; assay type: binding; settings: 10^-5 M
Source text: as §1

CCK Peripheral = assay: NOVASCREEN receptor selectivity assay; assay type: binding; settings: 10^-5 M
Source text: as §1

Substance K = assay: NOVASCREEN receptor selectivity assay; assay type: binding; settings: 10^-5 M
Source text: as §1

Neurotensin = assay: NOVASCREEN receptor selectivity assay; assay type: binding; settings: 10^-5 M
Source text: as §1

Inositol Triphosphate = assay: NOVASCREEN receptor selectivity assay; assay type: binding; settings: 10^-5 M
Source text: as §1

NPY = assay: NOVASCREEN receptor selectivity assay; assay type: binding; settings: 10^-5 M
Source text: as §1

NMDA = assay: NOVASCREEN receptor selectivity assay; assay type: binding; settings: 10^-5 M
Source text: as §1

Serotonin 2 = assay: NOVASCREEN receptor selectivity assay; assay type: binding; settings: 10^-5 M
Source text: as §1

[8] = tested on: H3 receptors in the cortex; assay: Blood-brain barrier penetration by ex vivo binding of [3H]-Nα-methylhistamine to cortex homogenate; assay type: in vivo, rat
Description: Blood-brain barrier penetration in rats was assessed by an ex vivo binding procedure. Young adult male Long-Evans rats were injected i.p. with saline or H3 antagonists in saline. At various times after injection animals were sacrificed, the cortex was removed, homogenized in 50 mM Na/K-phosphate buffer, pH 7.4, and the binding of 1 nM [^3 H]-N^α -methylhistamine was measured using 400 μg protein of the homogenate. Nonspecific binding was accounted for by the inclusion of excess thioperamide in some samples. Under these conditions, the binding was approximately 90% specific.

[9] = tested on: Calcium channel (w-Conotoxin); assay type: binding; settings: 10^-5 M
histamine H3 receptors = settings: cited from earlier work
[10] = animal toxicity studies or clinical usage; cited from earlier work
[11] = dogs, 162 mg/kg/day, repeated dose; cited from earlier work
[12] = peptic ulcer patients; cited from earlier work

## C[C@@H](N)Cc1c[nH]cn1 [(R)α-methylhistamine]
[1]; i.p. 15 to 35 mg/kg, one hour after injection, also evident at 30 minutes
  sleeping: dose-dependent (range of 15 to 35 mg/kg) increase in sleeping

## O=C(CCCCC1CCCCC1)N1CCC(c2c[nH]cn2)CC1 [Compound 1, 4-(1-CYCLOHEXYLVALEROYL-4-PIPERIDYL) 1H-IMIDAZOLE]
Histamine H3 -receptor; agonist 25 mg/kg
  inhibition of soporific effect of (R)α-methylhistamine: inhibited the soporific effect
[2]
  significant binding to other receptors: no significant binding
[3]
  toxicity: no toxicity
Glycine (excitatory)
  Initial Percent Inhibition (Average; N = 2): 1.8%
Substance P
  Initial Percent Inhibition (Average; N = 2): 20.0%
CCK Central
  Initial Percent Inhibition (Average; N = 2): 18.6%
Angiotensin
  Initial Percent Inhibition (Average; N = 2): 6.5%
PCP
  Initial Percent Inhibition (Average; N = 2): 9.7%
Kainate
  Initial Percent Inhibition (Average; N = 2): 42.1%
Bombesin
  Initial Percent Inhibition (Average; N = 2): -5.5%
Chloride channel
  Initial Percent Inhibition (Average; N = 2): -3.4%
Serotonin 1
  Initial Percent Inhibition (Average; N = 2): -3.6%
GABAB
  Initial Percent Inhibition (Average; N = 2): 0.0%
Arg-Vasopressin V1
  Initial Percent Inhibition (Average; N = 2): 10.1%
Potassium channel
  Initial Percent Inhibition (Average; N = 2): 7.7%
[4]
  Initial Percent Inhibition (Average; N = 2): 2.1%
NGF
  Initial Percent Inhibition (Average; N = 2): 17.1%
Glycine (Inhibitory)
  Initial Percent Inhibition (Average; N = 2): 17.4%
GABAA
  Initial Percent Inhibition (Average; N = 2): 0.6%
[5]
  Initial Percent Inhibition (Average; N = 2): 0.9%
[6]
  Initial Percent Inhibition (Average; N = 2): 8.1%
ANF (rat)
  Initial Percent Inhibition (Average; N = 2): 0.1%
VIP
  Initial Percent Inhibition (Average; N = 2): 17.1%
Adenosine
  Initial Percent Inhibition (Average; N = 2): -3.0%
MK-801
  Initial Percent Inhibition (Average; N = 2): -8.6%
Dopamine 2
  Initial Percent Inhibition (Average; N = 2): 3.5%
Somatostatin
  Initial Percent Inhibition (Average; N = 2): 4.1%
EGF
  Initial Percent Inhibition (Average; N = 2): 18.1%
[7]
  Initial Percent Inhibition (Average; N = 2): -1.8%
Benzodiazephine
  Initial Percent Inhibition (Average; N = 2): 2.7%
Dopamine 1
  Initial Percent Inhibition (Average; N = 2): 6.4%
CCK Peripheral
  Initial Percent Inhibition (Average; N = 2): 6.9%
Substance K
  Initial Percent Inhibition (Average; N = 2): 29.2%
Neurotensin
  Initial Percent Inhibition (Average; N = 2): -10.5%
Inositol Triphosphate
  Initial Percent Inhibition (Average; N = 2): 9.2%
NPY
  Initial Percent Inhibition (Average; N = 2): -8.7%
NMDA
  Initial Percent Inhibition (Average; N = 2): -4.5%
Serotonin 2
  Initial Percent Inhibition (Average; N = 2): 10.5%
[8]; i.p. 50 and 70 mg/kg, one hour after injection
  blood-brain barrier penetration: penetrates the blood-brain barrier
[9]
  Initial Percent Inhibition (Average; N = 2): 1.9%

## O=C(CCCCC1CCCCC1)N1CCC(c2c[nH]cn2)CC1 [Compound 2016]
Histamine H3 -receptor; both drugs administered peripherally
  reversal of soporific effect of R(-)-alphamethylhistamine: reverses the soporific effect

## S=C(NC1CCCCC1)N1CCC(c2cnc[nH]2)CC1 [Thioperamide]
Histamine H3 -receptor; agonist 30 mg/kg
  inhibition of soporific effect of (R)α-methylhistamine: able to inhibit the soporific effect
[1]; thioperamide alone, without agonist
  behavior: very active, exhibiting normal behaviors
Histamine H3 receptors; rats
  dose required to inhibit histamine release from the brain: relatively high doses are required in vivo
Histamine H3 receptors; suggested by Ganellin et al.
  blood-brain-barrier penetration: poor penetration through the blood-brain-barrier
[8]; i.p. 2, 5, and 10 mg/kg, 15 min after injection
  binding of [3H]-Nα-methylhistamine to cortical H3 receptors / blood-brain barrier penetration: decreased the binding of [^3 H]-Nα-methylhistamine to H3 receptors in the cortex

## CN/C(=N/CCSCc1nc[nH]c1C)NC#N [cimetidine]
[10]
  granulocytopenia or other side effects: did not cause granulocytopenia, or any other side effects

## C/N=C(\S)NCCSCc1[nH]cnc1C [metiamide]
[11]
  agranulocytosis: incidences of agranulocytosis
[12]
  granulocytopenia: low incidence of granulocytopenia
